Assay results: patent US20240239759A1, “ISOXAZOLINE COMPOSITIONS AND THEIR USE AS ANTIPARASITICS” (Intervet Inc., priority 2007, published 2024)
Read-outs that look alike come from different tables or passages of the source.

System: cat fleas (Ctenocephalides felis)
Assay: Efficacy of various isoxazolines against cat fleas on mice (Example 3)
Type: in vivo
Settings: for pest or weed control at 20 mg/kg: Ctenocephalides felis, po, read-out: Flea inhibition relative to negative control
Procedure: In this experiment, mice were randomly assigned to a treatment group or a negative control (untreated) group. Each group consisted of three mice. The mice in the treatment groups were orally administered 20 mg/kg bodyweight of various isoxazolines dissolved in 7% DMF-premix and 93% purified water (aqua ad injectabilia). The application volume of these treatments was 0.01 mL/g bodyweight. One hour after treatment, each mouse was sedated and generally infested (whole body) with 30 vital, adult fleas (C. felis). To achieve this, the sedated mice were placed into an infestation-jar, and the fleas were placed directly onto the fur. After approximately 30 minutes of feeding, fleas were recovered from the mice. Assessments for inhibition and mortality were conducted 1 hr, 24 hr, and 48 hr after each infestation. The efficacy was calculated as the percentage of inhibited fleas in the treatment groups relative to the negative control group.

[1] = 1 h, mice, oral 20 mg/kg, infested 1 hr after treatment, 1 hr after infestation
[2] = 24 h, mice, oral 20 mg/kg, infested 1 hr after treatment, 24 hr after infestation
[3] = 48 h, mice, oral 20 mg/kg, infested 1 hr after treatment, 48 hr after infestation
[4] = mice, oral 20 mg/kg, infested 1 hr after treatment, 1 hr after infestation

Compound | pest or weed control at 20 mg/kg [1] [%] | pest or weed control at 20 mg/kg [2] [%] | pest or weed control at 20 mg/kg [3] [%] | Flea inhibition relative to negative control [4] | pest or weed control at 20 mg/kg (1 h) [%] | pest or weed control at 20 mg/kg (24 h) [%] | pest or weed control at 20 mg/kg (48 h) [%]
CC(=O)N(C(=O)c1ccc(C2=NOC(c3cc(Cl)cc(Cl)c3)(C(F)(F)F)C2)cc1C)N(C)c1ccccc1 (stereo not shown) [Compound 5-57] | 0 | 86.7 | 87.7 | – | – | – | –
CC(NC(=O)c1ccc(C2=NOC(c3cc(Cl)c(Cl)c(Cl)c3)(C(F)(F)F)C2)cc1)C(=O)NCC(F)(F)F (stereo not shown) [Compound 5-35] | 0 | 100 | 100 | – | – | – | –
COCN(C(=O)OC)C(=O)c1ccc(C2=NOC(c3cc(Cl)cc(Cl)c3)(C(F)(F)F)C2)cc1Br (stereo not shown) [Compound 5-26] | 0 | 77.8 | 77.8 | – | – | – | –
CCNC(=O)CNC(=O)c1ccc(C2=NOC(c3cc(Cl)cc(Cl)c3)(C(F)(F)F)C2)cc1C (stereo not shown) [Compound 14-1] | 97.8 | 100 | 100 | – | – | – | –
CC(=O)N(C(=O)c1ccc(C2=NOC(c3cc(Cl)cc(Cl)c3)(C(F)(F)F)C2)cc1C)c1ncc(C#N)cn1 (stereo not shown) [Compound 5-30] | 2.2 | 67.8 | 68.9 | – | – | – | –
CCO/C(N)=N\C(=O)c1ccc(C2=NOC(c3cc(Br)cc(Br)c3)(C(F)(F)F)C2)cc1C (stereo not shown) [Compound 5-37] | 7.7 | 99 | 100 | – | – | – | –
CCO/N=C\NC(=O)c1ccc(C2=NOC(c3cc(Cl)cc(Cl)c3)(C(F)(F)F)C2)cc1C (stereo not shown) [Compound 5-50] | – | – | – | (27.7%) | – | – | –
COC(=O)N(C(=O)c1ccc(C2=NOC(c3cc(Cl)cc(Cl)c3)(C(F)(F)F)C2)cc1C)c1ncc(Cl)cn1 (stereo not shown) [Compound 5-48] | – | 91.1 | 91.1 | – | – | – | –
Cc1cc(C2=NOC(c3cc(Cl)cc(Cl)c3)(C(F)(F)F)C2)ccc1C(=O)NC1CCCO1 (stereo not shown) [Compound 5-64] | 50 | 97.8 | 97.8 | – | – | – | –
Cc1cc(C2=NO[C@](c3cc(Cl)cc(Cl)c3)(C(F)(F)F)C2)ccc1C(=O)NCC(=O)NCC(F)(F)F [Compound 11-1R] | 0 | 0 | 0 | – | – | – | –
COC(=O)N(C)C(=O)c1ccc(C2=NOC(c3cc(Cl)cc(Cl)c3)(C(F)(F)F)C2)cc1I (stereo not shown) [Compound 5-20] | 4.4 | 96.7 | 97.8 | – | – | – | –
Cc1cc(C2=NOC(CCl)(c3cc(Cl)cc(Cl)c3)C2)ccc1C(=O)NCc1ccccn1 (stereo not shown) [Compound 5-13] | 16.7 | 18.9 | 18.9 | – | – | – | –
COC(=O)N(C)C(=O)c1ccc(C2=NOC(c3cc(Cl)cc(Cl)c3)(C(F)(F)F)C2)cc1C (stereo not shown) [Compound 5-16] | 0 | 46.7 | 54.4 | – | – | – | –
COC(=O)N(C(=O)c1ccc(C2=NOC(c3cc(Cl)cc(Cl)c3)(C(F)(F)F)C2)cc1C)c1ncc(C#N)cn1 (stereo not shown) [Compound 5-31] | 0 | 65.6 | 65.6 | – | – | – | –
Cc1cc(C2=NOC(c3cc(Cl)cc(Cl)c3)(C(F)(F)F)C2)ccc1C(=O)NC(C)C(=O)NCC(F)(F)F (stereo not shown) [Compound 5-54] | – | – | – | 5-47 (0%), 5-54 (0%), | – | – | –
COC(=O)N(COC(C)C)C(=O)c1ccc(C2=NOC(c3cc(Cl)cc(Cl)c3)(C(F)(F)F)C2)cc1C (stereo not shown) [Compound 5-27] | 12.2 | 72.2 | 84.4 | – | – | – | –
Cc1cc(C2=NOC(c3cc(Cl)cc(Cl)c3)(C(F)(F)F)C2)ccc1C(=S)NCc1cscn1 (stereo not shown) [Compound X-1] | 4.3 | 100 | 100 | – | – | – | –
Cc1cc(C2=NO[C@@](c3cc(Cl)cc(Cl)c3)(C(F)(F)F)C2)ccc1C(=O)NCC(=O)NCC(F)(F)F (stereo in doubt) [Compound 17-1] | 100 | 100 | 100 | – | – | – | –
CO/N=C\NC(=O)c1ccc(C2=NO[C@@](c3cc(Cl)cc(Cl)c3)(C(F)(F)F)C2)cc1C [Compound 5-36] | 45.7 | 99 | 99 | – | – | – | –
Cc1cc(C2=NOC(c3cc(Cl)c(F)c(C(F)(F)F)c3)(C(F)(F)F)C2)ccc1C(=O)NCC(=O)NCC(F)(F)F (stereo not shown) [Compound 5-41] | 0 | 94.3 | 95.6 | – | – | – | –

Compound | pest or weed control at 20 mg/kg [1] [%] | pest or weed control at 20 mg/kg [2] [%] | pest or weed control at 20 mg/kg [3] [%] | Flea inhibition relative to negative control [4] | pest or weed control at 20 mg/kg (1 h) [%] | pest or weed control at 20 mg/kg (24 h) [%] | pest or weed control at 20 mg/kg (48 h) [%]
CCN(C(=O)c1ccc(C2=NOC(c3cc(Cl)cc(Cl)c3)(C(F)(F)F)C2)cc1C)c1ncc(Cl)cn1 (stereo not shown) [Compound 5-21] | 0 | 75.6 | 77.8 | – | – | – | –
O=C(CNC(=O)c1ccc(C2=NOC(c3cc(C(F)(F)F)cc(C(F)(F)F)c3)(C(F)(F)F)C2)cc1)NCC(F)(F)F (stereo not shown) [Compound 5-34] | 2.3 | 96.6 | 96.6 | – | – | – | –
Cc1cc(C2=NOC(c3cc(Cl)c(F)c(Cl)c3)(C(F)(F)F)C2)ccc1C(=O)NCC(=O)NCC(F)(F)F (stereo not shown) [Compound 5-40] | – | – | – | – | 0 | 85.6 | 85.6
Cc1cc(C2=NOC(c3cc(Cl)cc(Cl)c3)(C(F)(F)F)C2)ccc1C(=O)N(C(=O)C1CC1)c1ncc(Cl)cn1 (stereo not shown) [Compound 5-24] | 0 | 84.4 | 86.7 | – | – | – | –
COCN(C(=O)OC)C(=O)c1ccc(C2=NOC(c3cc(Cl)cc(Cl)c3)(C(F)(F)F)C2)cc1I (stereo not shown) [Compound 5-29] | 0 | 68.9 | 68.9 | – | – | – | –
CON=CNC(=O)c1ccc(C2=NOC(c3cc(Cl)c(Cl)c(Cl)c3)(C(F)(F)F)C2)cc1C (stereo not shown) [Compound 5-33] | 0 | 100 | 100 | – | – | – | –
CC(=O)N(C(=O)c1ccc(C2=NOC(c3cc(Cl)cc(Cl)c3)(C(F)(F)F)C2)cc1C)c1cnccn1 (stereo not shown) [Compound 5-32] | 0 | 70 | 71.1 | – | – | – | –
CCc1cc(C2=NOC(c3cc(Cl)cc(Cl)c3)(C(F)(F)F)C2)ccc1C(=O)NCC(F)(F)F (stereo not shown) [Compound 5-15] | 0 | 31.1 | 36.7 | – | – | – | –
C#CCNC(=O)CNC(=O)c1ccc(C2=NOC(c3cc(Cl)cc(Cl)c3)(C(F)(F)F)C2)cc1C (stereo not shown) [Compound 5-67] | 80 | 100 | 100 | – | – | – | –
COC(=O)N(COCC(F)(F)F)C(=O)c1ccc(C2=NOC(c3cc(Cl)cc(Cl)c3)(C(F)(F)F)C2)cc1C (stereo not shown) [Compound 5-25] | 0 | 75.6 | 84.4 | – | – | – | –
Cc1cc(C2=NOC(c3cc(Cl)cc(Cl)c3)(C(F)(F)F)C2)ccc1C(=O)N(C(=O)C(C)C)c1ncc(C#N)cn1 (stereo not shown) [Compound 5-18] | 0 | 54.4 | 54.4 | – | – | – | –
COCN(C(=O)c1ccc(C2=NOC(c3cc(Cl)cc(Cl)c3)(C(F)(F)F)C2)cc1C)c1ncc(Cl)cn1 (stereo not shown) [Compound 5-28] | 1.1 | 70 | 71.1 | – | – | – | –
Cc1cc(C2=NOC(c3cc(Cl)cc(Cl)c3)(C(F)(F)F)C2)ccc1C(=O)N(C(=O)C(C)C)c1ncc(Cl)cn1 (stereo not shown) [Compound 5-23] | 0 | 87.8 | 94.4 | – | – | – | –
O=C(CNC(=O)c1ccc(C2=NOC(c3cc(Cl)c(Cl)c(C(F)(F)F)c3)(C(F)(F)F)C2)cc1)NCC(F)(F)F (stereo not shown) [Compound 5-39] | 13.3 | 99 | 99 | – | – | – | –
CC(=O)N(C(=O)c1ccc(C2=NOC(c3cc(Cl)cc(Cl)c3)(C(F)(F)F)C2)cc1C)c1ncc(Br)cn1 (stereo not shown) [Compound 5-22] | 0 | 82.2 | 83.3 | – | – | – | –
CCO/C(N)=N\C(=O)c1ccc(C2=NOC(c3cc(Cl)cc(Cl)c3)(C(F)(F)Cl)C2)cc1C (stereo not shown) [Compound 5-38] | 2.3 | 96.7 | 97.7 | – | – | – | –
COC(=O)N(Cc1ccccn1)C(=O)c1ccc(C2=NOC(c3cc(Cl)cc(Cl)c3)(C(F)(F)F)C2)cc1C (stereo not shown) [Compound 5-19] | 0 | 90 | 94.4 | – | – | – | –
COC(CNC(=O)c1ccc(C2=NOC(c3cc(Cl)cc(Cl)c3)(C(F)(F)Cl)C2)cc1C)OC (stereo not shown) [Compound 5-53] | 0 | 82.2 | 91.1 | – | – | – | –
COC(=O)N(C(=O)c1ccc(C2=NOC(c3cc(Cl)cc(Cl)c3)(C(F)(F)F)C2)cc1C)c1cnc(Cl)cn1 (stereo not shown) [Compound 5-17] | 0 | 36.7 | 41.1 | – | – | – | –
